Experimental data reported in ChEMBL document CHEMBL5357029, “Informatics and Computational Approaches for the Discovery and Optimization of Natural Product-Inspired Inhibitors of the SARS-CoV-2 2'-O-Methyltransferase” (J Nat Prod, 2024).
The source made the active and inactive calls. The rule behind the calls is not given here.

Tests used:
[1] = Inhibition of SARS-CoV-2 nsp10 (1 to 139 residues)/nsp16 (1 to 298 residues) expressed in Escherichia coli BL21(DE3)RIL cells using RNA and [3H]SAM as substrate incubated for 1 hrs by SPA-based assay; design: species or system Severe acute respiratory syndrome coronavirus 2
[2] = test system: Severe acute respiratory syndrome coronavirus 2; experiment: Inhibition of SARS-CoV-2 nsp10/nsp16 2'-O-methyltransferase activity expressed in NiCo21 (DE3) cells using m7GpppAUUAA and S-adenosylmethionine as substrate at 10 uM incubated for 25 mins by luminescence based MTase Glo assay
[3] = Inhibition of SARS-CoV-2 nsp10/nsp16 2'-O-methyltransferase activity expressed in NiCo21 (DE3) cells using m7GpppAUUAA and S-adenosylmethionine as substrate by filter binding assay; design: species or system Severe acute respiratory syndrome coronavirus 2
PBMC = experiment: Cytotoxicity against human PBMC cells assessed as inhibition of cell proliferation incubated for 2 to 4 days by CellTiter 96 non-radioactive cell proliferation assay; assay type: toxicity, cell-based; details: time 2-4 day
SARS-CoV-2 = experiment: Antiviral activity against SARS-CoV-2 USA-WA1/2020 infected in african green monkey Vero cells assessed as reduction in viral replication by qRT-PCR analysis; assay type: functional, organism-based; details: Severe acute respiratory syndrome coronavirus 2, USA-WA1/2020, Vero
Vero = experiment: (§1) Cytotoxicity against African green monkey Vero cells assessed as inhibition of cell proliferation incubated for 2 to 4 days by CellTiter 96 non-radioactive cell proliferation assay; assay type: toxicity, cell-based; details: chlorocebus sabaeus, vero; time 2-4 day
[4] = as §1; assay type: toxicity, cell-based; details: chlorocebus sabaeus, Vero cells; time 2-4 day

Structure (SMILES): Nc1ncnc2c1ncn2[C@@H]1O[C@H](C[C@@H](N)CC[C@H](N)C(=O)O)[C@@H](O)[C@H]1O [SINEFUNGIN]
- IC50 [1]: 3.4 µM
- inhibition [2]: Active

Structure (SMILES): CC1=CC[C@H]2[C@H](C1)c1c(/C=C/c3ccc(O)cc3)cc(O)cc1OC2(C)C
- IC50 [3]: 13.6 µM
- CC50 (PBMC): 60.4 µM
- inhibition [2]: Active
- EC50 (SARS-CoV-2): 4.7 µM
- CC50 (Vero): 11.9 µM

Structure (SMILES): CC1=CC[C@H]2[C@H](C1)c1c(O)cc(/C=C/c3ccc(O)cc3)cc1OC2(C)C
- IC50 [3]: 13.3 µM
- CC50 (PBMC): 53.4 µM
- inhibition [2]: Active
- EC50 (SARS-CoV-2): 7 µM
- CC50 (Vero): 22.3 µM

Structure (SMILES): CCC(CC)COC(=O)[C@H](C)N[P@](=O)(OC[C@H]1O[C@@](C#N)(c2ccc3c(N)ncnn23)[C@H](O)[C@@H]1O)Oc1ccccc1
- CC50 (PBMC): 2 µM
- EC50 (SARS-CoV-2): 2.3 µM
- CC50 [4]: > 100 µM
